Experimental data taken from US11905284B2, “5,7-dihydro-pyrrolo-pyridine derivatives” (PFIZER INC., priority 2016, dated 2024).

Molecular target: T1, Human M4 receptors (Homo sapiens, UniProt P08173)
T1 construct: expressed in transfected cells; host or cells: HEK293 cells with Promega GloSensor cAMP technology, stably expressing hM4
T1 sequence (P08173 1-479): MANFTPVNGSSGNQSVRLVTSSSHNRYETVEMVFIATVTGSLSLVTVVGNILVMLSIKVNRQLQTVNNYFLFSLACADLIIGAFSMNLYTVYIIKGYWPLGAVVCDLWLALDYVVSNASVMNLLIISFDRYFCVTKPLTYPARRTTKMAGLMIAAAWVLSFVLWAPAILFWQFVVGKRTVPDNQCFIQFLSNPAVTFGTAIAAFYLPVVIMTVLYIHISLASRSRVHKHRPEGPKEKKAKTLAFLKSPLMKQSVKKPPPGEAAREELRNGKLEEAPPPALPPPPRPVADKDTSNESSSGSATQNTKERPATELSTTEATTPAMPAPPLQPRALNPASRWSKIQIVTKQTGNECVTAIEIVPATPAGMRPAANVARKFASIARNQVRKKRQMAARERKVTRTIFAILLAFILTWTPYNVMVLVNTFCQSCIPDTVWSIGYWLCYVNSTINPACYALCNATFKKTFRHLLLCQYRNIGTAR
Assay: M4 PAM cAMP assay (GloSensor)
Format: cell-based
Details: for Emax: HEK293, read-out: M4 glosensor EC50 Mean Asymptote Maximum (%)
Method: The M4 PAM binding affinity for the compounds of the present invention was determined utilizing the following biological assay(s):
The M4 cAMP assay was designed to determine the potency and efficacy of muscarinic positive allosteric modulators (PAMs). Human M4 receptors were stably expressed in Human embryonic kidney (HEK293) cells expressed with the Promega GloSensor™ cAMP technology.
HEK293 GloSensor cells expressing hM4 cells were cultured in growth media containing DMEM with 10% FBS, 1% Penicillin/Streptomycin, 500 μg/mL G418, 200 μg/mL Hygomycin B, and 1% Glutamax. […] Plates were incubated at 37 degrees C. and 5% CO2 for use after 24 hours.
Compound Preparation for Agonist Screen:
Each compound was tested at 10 concentrations in duplicate per experiment. Compound plates are spotted with 0.2 μL/well agonist at 400 times the final assay concentration. Positive and negative controls for the compound alone agonist response was 10 μM acetylcholine (Sigma #A2661) and DMSO, respectively. EC20 of acetylcholine was also used to define PAM activities.
Promega GloSensor™ reagent (Promega #E1291) had previously been aliquotted. […] Stock solution was mixed. Culture media in cell plates was discarded, then replaced with 40 μL/well pre-warmed equilibration media, then incubated in the dark at room temperature for 2 hours. During the incubation, stimulation media containing agonist and EC20 acetylcholine was prepared. […] Compounds are now 5 times the final assay concentration. The plate was mixed using a plate agitator. At the end of the 2 hour GloSensor™ incubation, add 10 μL of the CO2-independent media containing agonist, EC20 acetylcholine and isoproterenol to the cell plate. Cell plate was then incubated for 10 minutes at room temperature, and then read using an EnVision plate reader (Perkin Elmer).
Data was exported from the EnVision plate reader. The percent effect for each well was determined using the mean values for the positive and negative controls on each plate for each read, specifically 100*(compound−negative control)/(positive control−negative control). Dose response curves were fitted to the compound percent effect data using a 4-parameter logistic fit model. Data was reported as EC50 and Emax, with the Emax as the maximum asymptote of the fitted dose response curve.

[1] = HEK293 GloSensor cells expressing hM4, with EC20 acetylcholine and isoproterenol, geometric mean of 2-4 determinations unless otherwise indicated

| Structure (SMILES) | Emax | EC50 [1] | M4 glosensor EC50 Mean Asymptote Maximum (%) (Emax = maximum asymptote of fitted dose response curve, HEK293 GloSensor cells expressing hM4, with EC20 acetylcholine and isoproterenol, geometric mean of 2-4 determinations unless otherwise indicated) |
| --- | --- | --- | --- |
| Cc1cc(C)c2c(n1)CN(C(=O)CC1CN(c3ccc(C4CC4)cc3)C1)C2 [Example 72, 2-[1-(4-cyclopropylphenyl)azetidin-3-yl]-1-(2,4-dimethyl-5,7-dihydro-6H-pyrrolo[3,4-b]pyridin-6-yl)ethanone] | 90.6% | 0.537 µM |  |
| Cc1cc(C(F)F)nc2c1CN(C(=O)CC1CN(c3ccnc(C(F)F)c3)C1)C2 [Example 45, 1-[2-(difluoromethyl)-4-methyl-5,7-dihydro-6H-pyrrolo[3,4-b]pyridin-6-yl]-2-{1-[2-(difluoromethyl)pyridin-4-yl]azetidin-3-yl}ethanone] | 93.5% | 0.0156 µM |  |
| Cc1nc2c(c(C)c1C)CN(C(=O)C[C@@H]1C[C@H]1c1cccnc1)C2 (single isomer, unassigned) [Example 38, 2-[trans-2-(pyridin-3-yl)cyclopropyl]-1-(2,3,4-trimethyl-5,7-dihydro-6H-pyrrolo[3,4-b]pyridin-6-yl)ethanone] |  | 0.0159 µM | 111% |
| Cc1c(Cl)c(OC(F)F)nc2c1CN(C(=O)CC1CN(c3cncnc3)C1)C2 [Example 32, 1-[3-chloro-2-(difluoromethoxy)-4-methyl-5,7-dihydro-6H-pyrrolo[3,4-b]pyridin-6-yl]-2-[1-(pyrimidin-5-yl)azetidin-3-yl]ethanone] | 109% | 0.011 µM |  |
| Cc1cc(C)c2c(n1)CN(C(=O)CC1CN(c3cc(NC(C)C)ncn3)C1)C2 [Example 42, 1-(2,4-dimethyl-5,7-dihydro-6H-pyrrolo[3,4-b]pyridin-6-yl)-2-{1-[6-(propan-2-ylamino)pyrimidin-4-yl]azetidin-3-yl}ethanone] | 93.9% | 0.00505 µM |  |
| Cc1nc2c(c(C)c1C)CN(C(=O)OC1CN(c3cccnc3)C1)C2 [Example 36, 1-(pyridin-3-yl)azetidin-3-yl 2,3,4-trimethyl-5,7-dihydro-6H-pyrrolo[3,4-b]pyridine-6-carboxylate] | 93% | 0.0104 µM |  |
| Cc1cc(CO)nc2c1CN(C(=O)CC1CN(c3cccnc3)C1)C2 [Example 9, 1-[2-(Hydroxymethyl)-4-methyl-5,7-dihydro-6H-pyrrolo[3,4-b]pyridin-6-yl]-2-[1-(pyridin-3-yl)azetidin-3-yl]ethanone] | 86.5% | 0.0172 µM |  |
| COCc1nc2c(c(C)c1Cl)CN(C(=O)CC1CN(c3cccnc3)C1)C2 [Example 48, 1-[3-chloro-2-(methoxymethyl)-4-methyl-5,7-dihydro-6H-pyrrolo[3,4-b]pyridin-6-yl]-2-[1-(pyridin-3-yl)azetidin-3-yl]ethanone] | 105% | 0.00299 µM |  |
| Cc1nc2c(c(C)c1C)CN(C(=O)CC1CN(c3ccnc(C(F)F)c3)C1)C2 [Example 46, 2-{1-[2-(difluoromethyl)pyridin-4-yl]azetidin-3-yl}-1-(2,3,4-trimethyl-5,7-dihydro-6H-pyrrolo[3,4-b]pyridin-6-yl)ethanone] | 106% | 0.00953 µM |  |
| Cc1cc(C)c2c(n1)CN(C(=O)C[C@H]1C[C@@H]1c1ccc3cncnc3c1)C2 (racemic) [Example 76, 1-(2,4-dimethyl-5,7-dihydro-6H-pyrrolo[3,4-b]pyridin-6-yl)-2-[trans-2-(quinazolin-7-yl)cyclopropyl]ethanone] | 45% | 1.4 µM |  |
| COCc1cc(C)c2c(n1)CN(C(=O)CC1CN(c3ccnc(OC(F)F)c3)C1)C2 [Example 8, 2-{1-[2-(Difluoromethoxy)pyridin-4-yl]azetidin-3-yl}-1-[2-(methoxymethyl)-4-methyl-5,7-dihydro-6H-pyrrolo[3,4-b]pyridin-6-yl]ethanone] | 99.1% | 0.0227 µM |  |
| Cc1c(C(F)F)nc2c(c1C)CN(C(=O)CC1CN(c3ccnc(OC(F)F)c3)C1)C2 [Example 10, 2-{1-[2-(Difluoromethoxy)pyridin-4-yl]azetidin-3-yl}-1-[2-(difluoromethyl)-3,4-dimethyl-5,7-dihydro-6H-pyrrolo[3,4-b]pyridin-6-yl]ethanone] | 99.5% | 0.0289 µM |  |
| COc1nc2c(c(C)c1C)CN(C(=O)CC1CN(c3cncnc3)C1)C2 [Example 29, 1-(2-methoxy-3,4-dimethyl-5,7-dihydro-6H-pyrrolo[3,4-b]pyridin-6-yl)-2-[1-(pyrimidin-5-yl)azetidin-3-yl]ethanone] | 99.8% | 0.0261 µM |  |
| Cc1nc2c(c(C)c1Cl)CN(C(=O)C[C@@H]1C[C@H]1c1cncnc1)C2 (single isomer, unassigned) [Example 51, 1-(3-chloro-2,4-dimethyl-5,7-dihydro-6H-pyrrolo[3,4-b]pyridin-6-yl)-2-[trans-2-(pyrimidin-5-yl)cyclopropyl]ethanone] | 102% | 0.00475 µM |  |
